Reference: paper PMC1851987, “Identification of the Endogenous Key Substrates of the Human Organic Cation Transporter OCT2 and Their Implication in Function of Dopaminergic Neurons” (PLoS ONE, 2007)
Residue numbers refer to the chain shown, from its start.

Assays:
[1] = tested on: HEK-293 cells expressing empty vector; assay: MTT reduction cell viability assay, empty vector transfected HEK-293 cells; assay type: cell-based, human
Method: (§1) Cell viability was assessed in HEK-293 cells, human dopaminergic neuroblastoma cells (SH-SY5Y) and human glioblastoma cells (HTZ-146) by the MTT test as described.[22] […] For indication of metabolic activity, cells were treated with MTT reagent (15 µl of 1 mg/ml stock solution per well) for 1 h, and after drying of culture plates for 1 h at 37°C, the resulting formazan dye was extracted with isopropanol/HCl (100 µl 0.04 mol/l per well) and absorbance was determined spectrophotometrically at 568 nm. Results were in agreement with the data obtained by the tryptan blue exclusion method (data not shown).

SH-SY5Y cells = assay: MTT reduction cell viability assay, SH-SY5Y cells; assay type: cell-based, human
Method: as §1

OCT2 variant M165I = target: T1, OCT2 variant M165I (Homo sapiens, UniProt O15244, M165I/S270A); assay: Specific uptake into HEK-293 cells transfected with OCT2 variant M165I
T1 sequence (O15244 1-555 M165I/S270A): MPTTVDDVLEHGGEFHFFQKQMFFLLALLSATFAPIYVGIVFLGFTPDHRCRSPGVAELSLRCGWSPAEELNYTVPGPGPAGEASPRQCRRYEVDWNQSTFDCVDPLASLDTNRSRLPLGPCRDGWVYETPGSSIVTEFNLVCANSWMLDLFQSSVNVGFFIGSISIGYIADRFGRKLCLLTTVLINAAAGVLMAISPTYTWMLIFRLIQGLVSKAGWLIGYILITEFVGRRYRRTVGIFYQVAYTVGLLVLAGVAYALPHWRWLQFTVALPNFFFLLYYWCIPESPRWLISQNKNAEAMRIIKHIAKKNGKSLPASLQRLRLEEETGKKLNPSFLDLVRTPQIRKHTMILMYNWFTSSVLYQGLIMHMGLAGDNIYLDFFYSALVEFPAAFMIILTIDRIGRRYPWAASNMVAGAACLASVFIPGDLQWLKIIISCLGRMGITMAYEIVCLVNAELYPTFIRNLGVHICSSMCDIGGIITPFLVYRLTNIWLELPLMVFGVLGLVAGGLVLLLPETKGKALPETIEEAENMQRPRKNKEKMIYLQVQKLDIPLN
Method: (§2) The cDNAs encoding the organic cation transporters OCT1 (GenBank accession no. NM_003057), OCT2 (NM_003058), and EMT (NM_021977) were amplified by RT-PCR from human liver, kidney, and placenta total RNA respectively, and subcloned into the eukaryotic expression vector pcDNA3. The cDNA encoding the norepinephrine transporter (SLC6A2) was kindly provided by C. Pifl (University of Vienna).
(§3) For uptake experiments, cells were grown on polystyrene dishes of 60 mm diameter to at least 80% confluence. […] Cells were lysed with 1 ml of 4 mmol/l perchloric acid and lysates subjected to LC-MS-MS quantification. Cellular protein content was determined after solubilization of perchloric acid precipitates with 1 ml of […] NaOH using the bicinchoninic assay (BCA Protein Assay Kit, Pierce).
(§4) Chromatographic separations were performed on Hypercarb (5 µm, 50×2.1 mm; Thermo Electron), Aquasil C18 (3 µm, 100×4.6 mm; Thermo Electron), or Hilic columns (5 µm, 100×3.0 mm; Waters Atlantis) by isocratic or gradient elution using 0.1% aqueous formic acid (A) and acetonitrile or methanol (B) as solvent system. For quantification, SRM transitions of a precursor ion [M+H]^+ into a specific fragment ion (peak area ratios relative to IS) were recorded in positive ESI mode at 1.0–1.5 mTorr collision pressure and 10–40 eV collision energy. […]

OCT2 variant K432Q = target: T2, OCT2 variant K432Q (Homo sapiens, UniProt O15244, K432Q/S270A); assay: Specific uptake into HEK-293 cells transfected with OCT2 variant K432Q
T2 sequence (O15244 1-555 S270A/K432Q): T1 sequence (O15244 1-555 M165I/S270A) with I165M, K432Q
Method: as §2, §3, §4

[2] = incubation with 10 µmol/l, mean (s.e.m.)

Clin (OCT2 variant M165I; [2]) | Clin (OCT2 variant K432Q; [2]) | SMILES | effect of pretreatment on salsolinol-induced degeneration ([1]; cyclo(his-pro) 10 µmol/l, 12 h prior to salsolinol treatment) | effect on glutamate-induced cytotoxicity (SH-SY5Y cells; pre-treated 1 h with 10 µmol/l cyclo(his-pro)) | EC50 ([1]; Homo sapiens, HEK293, 48 h exposure, no pretreatment, read-out: EC50 (95% confidence interval), cell viability) | EC50 (SH-SY5Y cells; Homo sapiens, SH-SY5Y, 48 h, non-pretreated, read-out: EC50 (95% confidence interval), cell viability) | Km at 1 min (OCT2 variant M165I; human, pH 7.4) | Km at 1 min (OCT2 variant K432Q; human, pH 7.4)
24.8 (3.7) µl/mg/min | 26.0 (4.3) µl/mg/min | O=C1NC(Cc2c[nH]cn2)C(=O)N2CCCC12 (centres unmarked) [cyclo(his-pro), histidyl-proline diketopiperazine] | had no effect | prevented | – | – | – | –
– | – | CC1NCCc2cc(O)c(O)cc21 (centres unmarked) [salsolinol] | – | – | 1.11 mM | 49 µM | 127 µM | 129 µM
